According to patent US6306860A, “2,5-pyridinedicarboxylic acid derivatives” (Dong Wha Pharm. Inc. Co., Ltd., priority 1998, dated 2001):
Where a name gives a salt, the structure may show the parent alone. Read-outs that look alike come from different tables or passages of the source.

Assays:
[1] = target: T1, HIV reverse transcriptase (Human immunodeficiency virus type 1 group M subtype B, UniProt P04585); experiment: In vitro inhibition test against HIV reverse transcriptase; assay type: biochemical; conditions: read-out: Inhibitory activity of HIV-RT (%)
T1 construct: purchased Boehringer Mannheim
Procedure: Experiment 2: The in vitro Inhibition Test Against HIV Reverse Transcriptase
The inhibitory activity in vitro was measured using a non-radioactive reverse transcriptase assay Kit (Boehringer Mannheim).
At first, 20 μl(40 ng) of HIV-RT was added to the wells, coated with streptavidin and with the addition of 20 μl reaction mixture containing template/primer hybrid poly(A)/oligo(dT)15 and DIG-(digoxigenin)-dUTP, biotin-dUTP and TTP, 20 μl of test compound was added and reacted at 37° C. for 1 hour. The control without test compound was used for the comparison of related activity. Since DNA containing nucleotide labeled with digoxigenin and biotine was prepared by the action of HIV-RT, it was combined with streptavidin coated at the bottom of the wells. After the reaction was completed, remaining impurities were removed by washing each well with 250 μl buffer solution (pH 7.0) for 30 seconds 5 times and with the addition of 200 μl anti-DIG-POD antibody, the mixture was reacted at 37° C. for 1 hour. For the removal of remaining impurities again, the reacting solution was washed with a buffer solution and with the addition of 200 μl ABTS™ each, a substrate of POD(peroxidase), the solution was reacted at room temperature for 30 minutes. The absorbance was read by ELISA reader at 405 nm for the assay of reverse transcriptase activity and its inhibition activity.

HBV polymerase = target: T2, HBV polymerase (Hepatitis B virus genotype D subtype ayw, UniProt P03156); experiment: Inhibitory activities against HBV polymerase (reverse transcriptase activity) in vitro; assay type: biochemical; conditions: read-out: Inhibitory activity of HBV-RT (%); for inhibition at 0.01 µg/mL: 0.01 μg/ml; for inhibition at 0.1 µg/mL: 0.1 μg/ml; for inhibition at 1 µg/mL: 1 μg/ml
T2 construct: made in house; host or cells: E. coli
T2 sequence (P03156 whole entry): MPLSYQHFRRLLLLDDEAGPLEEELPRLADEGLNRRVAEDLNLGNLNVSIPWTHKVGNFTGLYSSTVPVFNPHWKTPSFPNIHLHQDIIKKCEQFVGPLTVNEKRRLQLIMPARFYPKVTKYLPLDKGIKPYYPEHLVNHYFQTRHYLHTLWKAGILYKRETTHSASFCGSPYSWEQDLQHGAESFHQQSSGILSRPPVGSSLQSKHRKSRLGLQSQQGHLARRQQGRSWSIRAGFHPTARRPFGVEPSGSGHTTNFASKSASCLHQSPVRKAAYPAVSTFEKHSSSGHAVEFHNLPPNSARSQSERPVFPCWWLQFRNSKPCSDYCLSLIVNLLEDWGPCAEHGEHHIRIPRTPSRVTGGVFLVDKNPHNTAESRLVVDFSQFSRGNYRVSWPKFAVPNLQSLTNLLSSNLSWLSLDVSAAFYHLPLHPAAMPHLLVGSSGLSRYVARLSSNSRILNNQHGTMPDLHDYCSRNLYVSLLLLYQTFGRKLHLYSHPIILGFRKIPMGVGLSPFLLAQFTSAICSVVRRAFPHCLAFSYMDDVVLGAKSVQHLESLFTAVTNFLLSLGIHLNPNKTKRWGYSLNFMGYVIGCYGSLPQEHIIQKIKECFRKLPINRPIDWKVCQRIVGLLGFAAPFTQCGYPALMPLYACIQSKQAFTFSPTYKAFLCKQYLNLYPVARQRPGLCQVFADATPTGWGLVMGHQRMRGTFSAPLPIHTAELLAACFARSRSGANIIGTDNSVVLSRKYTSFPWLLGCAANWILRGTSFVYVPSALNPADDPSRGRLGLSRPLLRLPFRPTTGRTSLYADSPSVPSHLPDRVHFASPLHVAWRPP
Excerpt: Experiment 1:Inhibitory Activities Against HBV Polymerase in vitro
Recently, the inventors of the present invention have produced a recombinant HBV polymerase that is expressed from E.coli transformant, measured its enzyme activity and filed patent applications threrof [Korean Pat. Appl. Nos. 94-3918 and 96-33998].
The inventors have also established a method of measuring the reverse transcriptase activity of HBV polymerase in vitro. The fundamental principle is the same as the ELISA method, and after reacting the substrate with biotin- and DIG-modified nucleotide, a method of recognizing the polymerized substrate as anti-DIG antibody with peroxidase was used.
20 μl of HBV polymerase, 20 μl of reaction mixture and 20 μl of test compound was mixed and reacted at 14° C.~30° C. for 18~24 hours. Then, the inhibitory effect of the test compound against reverse transcriptase activity in the HBV polymerase was examined, compared with the results of control tests without the test compound.

Structure (SMILES)	inhibition at 0.1 µg/mL ([1]; 0.1 μg/ml)	inhibition at 1 µg/mL ([1]; 1 μg/ml)	inhibition at 0.01 µg/mL (HBV polymerase)	inhibition at 0.1 µg/mL (HBV polymerase)	inhibition at 1 µg/mL (HBV polymerase)	inhibition at 0.1 µg/mL [1]	inhibition at 1 µg/mL [1]
CC(C)Nc1cccnc1N1CCN(C(=O)c2ccc(C(=O)NCc3cccnc3)cn2)CC1 [Exam. 76, 6-[1-[3-(isopropylamino)-2-pyridyl]piperazin-4-yl-carbonyl]-N-(3-pyridylmethyl)nicotinamide]	57%	82%	30%	53%	62%	–	–
CC(C)Nc1cccnc1N1CCN(C(=O)c2ccc(C(=O)NCCCn3ccnc3)cn2)CC1 [Exam. 83, N-[3-(1H-imidazol-1-yl)propyl]-6-[1-[3-(isopropylamino)-2-pyridyl]piperazin-4-yl-carbonyl]nicotinamide]	30%	62%	65%	72%	89%	–	–
CC(C)Nc1cccnc1N1CCN(C(=O)c2ccc(C(=O)Nc3nncs3)cn2)CC1 [Exam. 69, 6-[1-[3-(isopropylamino)-2-pyridyl]piperazin-4-yl-carbonyl]-N-(1,3,4-thiadiazol-2-yl)nicotinamide]	35%	67%	12%	47%	64%	–	–
CC(C)Nc1cccnc1N1CCN(C(=O)c2ccc(C(=O)Nc3ncccc3O)cn2)CC1 [Exam. 85, N-(3-hydroxy-2-pyridyl)-6-[1-[3-(isopropylamino)-2-pyridyl]piperazin-4-yl-carbonyl]nicotinamide]	47%	70%	61%	70%	88%	–	–
CC(C)Nc1cccnc1N1CCN(C(=O)c2ccc(C(=O)NCCN(C)C)cn2)CC1 [Exam. 62, 5-[N-[2-(dimethylamino)ethyl]carbamoyl]-2-[1-[3-(isopropylamino)-2-pyridyl]piperazin-4-yl-carbonyl]pyridine.HCl]	63%	79%	47%	58%	69%	–	–
COC(CNC(=O)c1ccc(C(=O)N2CCN(CCO)CC2)nc1)OC [Exam. 101, N-(2,2-dimethoxyethyl)-6-[1-(2-hydroxyethyl)piperazin-4-yl-carbonyl]nicotinamide]	–	–	55%	63%	85%	41%	56%
CC(C)Nc1cccnc1N1CCN(C(=O)c2ccc(C(=O)N(CCO)c3ccccc3)cn2)CC1 [Exam. 17]	–	–	42%	53%	66%	–	–
CCNc1cccnc1N1CCN(C(=O)c2ccc(C(=O)NCc3ccccn3)cn2)CC1 [Exam. 74, 6-[1-[3-(ethylamino)-2-pyridyl]piperazin-4-yl-carbonyl]-N-(2-pyridylmethyl)nicotinamide]	61%	80%	19%	56%	70%	–	–
CC(C)CNc1cccnc1N1CCN(C(=O)c2ccc(C(=O)NCCO)cn2)CC1 [Exam. 22]	50%	60%	54%	60%	86%	–	–
CC(C)NC(=O)c1ccc(C(=O)N2CCN(c3ncccc3NC(C)C)CC2)nc1 [Exam. 24, 2-[1-[3-(isopropylamino)-2-pyridyl]piperazin-4-yl-carbonyl]-5-(N-isopropylcarbamoyl)pyridine]	30%	66%	23%	51%	65%	–	–
CC(C)CNc1cccnc1N1CCN(C(=O)c2ccc(C(=O)NC(C)(C)CO)cn2)CC1 [Exam. 23, 5-[N-(1,1-dimethyl-2-hydroxyethyl)carbamoyl]-2-[1-[3-(isobutylamino)-2-pyridyl]piperazin-4-yl-carbonyl]pyridine]	46%	62%	63%	71%	90%	–	–
CC[C@H](CO)NC(=O)c1ccc(C(=O)N2CCN(c3ncccc3NC(C)C)CC2)nc1 [Exam. 7, 5-[N-[(1R)-1-ethyl-2-hydroxyethyl]carbamoyl]-2-[1-[3-(isopropylamino)-2-pyridyl]piperazin-4-yl-carbonyl]pyridine]	–	–	53%	64%	70%	–	–
CC(C)Nc1cccnc1N1CCN(C(=O)c2ccc(C(=O)N(C)CC3OCCO3)cn2)CC1 [Exam. 52, 5-[N-[(1,3-Dioxolan-2-yl)methyl]-N-methylcarbamoyl]-2-[1-[3-(isopropylamino)-2-pyridyl]piperazin-4-yl-carbonyl]pyridine]	50%	62%	39%	60%	76%	–	–
CCNc1cccnc1N1CCN(C(=O)c2ccc(C(=O)NCCO)cn2)CC1 [Exam. 18, 2-[1-[3-(ethylamino)-2-pyridyl]piperazin-4-yl-carbonyl]-5-[N-(2-hydroxyethyl)carbamoyl]pyridine]	–	–	52%	69%	84%	–	–
Nc1cccnc1N1CCN(C(=O)c2ccc(C(=O)NCCO)cn2)CC1 [Exam. 20, 2-[1-(3-Amino-2-pyridyl)piperazine4-yl-carbonyl]-5-[N-(2-hydroxyethyl)carbamoyl]pyridine]	–	–	54%	67%	74%	–	–
CC(C)Nc1cccnc1N1CCN(C(=O)c2ccc(C(=O)NCCO)cn2)CC1 [Exam. 1, 5-[N-(2-hydroxyethyl)carbamoyl]-2-[1-[3-(isopropylamino)-2-pyridyl]piperazin-4-yl-carbonyl]pyridine]	–	–	30%	51%	54%	–	–
CC(C)Nc1cccnc1N1CCN(C(=O)c2ccc(C(=O)NCCCO)cn2)CC1 [Exam. 2, 5-[N-(3-Hydroxypropyl)carbamoyl]-2-[1-[3-(isopropylamino)-2-pyridyl]piperazine-4-yl-carbonyl]pyridine]	–	–	49%	60%	71%	–	–
CC(C)Nc1cccnc1N1CCN(C(=O)c2ccc(C(=O)N[C@@H](C)CO)cn2)CC1 [Exam. 4, 5-[N-[(1S)-2-hydroxy-1-methylethyl]carbamoyl]-2-[1-[3-(isopropylamino)-2-pyridyl]piperazin-4-yl-carbonyl]pyridine]	–	–	30%	39%	56%	–	–
CC(C)(CO)NC(=O)c1ccc(C(=O)N2CCN(c3ncccc3N)CC2)nc1 [Exam. 21, 2-[1-(3-amino-2-pyridyl)piperazin-4-yl-carbonyl]-5-[N-(1,1-dimethyl-2-hydroxyethyl)carbamoyl]pyridine]	–	–	38%	62%	70%	–	–
CC(C)CNc1cccnc1N1CCN(C(=O)c2ccc(C(=O)Nc3ncccc3O)cn2)CC1 [Exam. 86]	–	–	13%	46%	71%	–	–
CCN(CCO)C(=O)c1ccc(C(=O)N2CCN(c3ncccc3NC(C)C)CC2)nc1 [Exam. 14, 5-[N-ethyl-N-(2-hydroxyethyl)carbamoyl]-2-[1-[3-(isopropylamino)-2-pyridyl]piperazin-4-yl-carbonyl]pyridine]	–	–	–	10%	35%	–	–
CCNc1cccnc1N1CCN(C(=O)c2ccc(C(=O)NC(C)(C)CO)cn2)CC1 [Exam. 19, 5-[N-(1,1-dimethyl-2-hydroxyethyl)carbamoyl]-2-[1-[3-(ethylamino)-2-pyridyl]piperazin-4-yl-carbonyl]pyridine]	–	–	32%	56%	72%	–	–
CC(C)Nc1cccnc1N1CCN(C(=O)c2ccc(C(=O)N[C@H](C)CO)cn2)CC1 [Exam. 3, 5-[N-[(1R)-2-hydroxy-1-methylethyl]carbamoyl]-2-[1-[3-(isopropylamino)-2-pyridyl]piperazin-4-yl-carbonyl]pyridine]	–	–	41%	57%	74%	–	–
